Experimental data as given in patent US20130136836A1, “Taste-Masking Compositions, Sweetener Compositions and Consumable Product Compositions Containing the Same” (Nutrinova Nutrition Specialties & Food Ingredients GmbH, priority 2011, published 2013).

Tests used:
[1] = test system: panel of trained sensory evaluators; experiment: Taste and spit assay with regard to sweetness in the aftertaste, panel of 11 trained sensory evaluators (Example 2); type: in vivo, human; conditions: 11 panelists; 35 ml at 6.0-8.0 °C; after 2 minutes; qualitative comparison of three samples; FIG. 2
Procedure: Again the panelists are given samples.
Air was constantly exchanged.
(§1) The samples were prepared by a trained laboratory assistant.
The panel used the sweetness scale anchored by three concentrations of sucrose:
Sweetness was assessed with the 1st sip (max. 30 ml, min of 15 ml) and scored in the aftertaste (after 2 minutes).
All samples were tested in duplicate.

[2] = test system: panel of trained sensory evaluators; experiment: Taste and spit assay, descriptive taste impression versus base samples, panel of 4 trained sensory evaluators (Examples 3 to 13); type: in vivo, human; conditions: for further effect added to the composition of the invention: benzaldehyde 0.02 wppm, below its threshold
Procedure: All tests were conducted under controlled and standardized conditions.
as §1
35 ml of the samples were served at room temperature in clear plastic cups.
The following samples comprising a composition of the invention were tested for their ability to improve the taste of artificial sweeteners.
All samples were tested in duplicate and evaluated at least 3 different concentrations in comparison to 3 base samples (samples 1 to 3).
The panelists were asked to evaluate and to describe the taste impression of the samples 4 to 13 containing a sweetener composition comprising acesulfame potassium, sucralose and a composition of the invention, e.g. bitter aftertaste, creaminess, fullness and character of the sweeteners in each case in comparison to the base samples 1 to 3.
The results of the taste and spit assay are based in each case on a qualitative evaluation of the differences between the samples.

## OC[C@H]1O[C@@](CO)(O[C@H]2O[C@H](CO)[C@@H](O)[C@H](O)[C@H]2O)[C@@H](O)[C@@H]1O [saccharose]
[1]
  sweetness in the aftertaste: less sweet in the aftertaste than acesulfame potassium and sucralose

## O=Cc1ccccc1 [Benzaldehyde, benzaldehyde]
[2]; in sample 12 (with naringin, syringaldehyde, massoia lactone, whiskey lactone)
  further effect added to the composition of the invention: did not add any further effect
[2]; in sample 13 (with naringin, 4-methoxy salicylaldehyde, lactones, amino acids; sucralose 75 wppm)
  further effect added to the composition of the invention: did not add any further effect

## delta-undecalactone
[2]; delta-undecalactone 0.0388 wppm in Sample 14, replacing massoia lactone, 4 panelists
  taste impression of the lactone in the composition: not being too volatile and as adding a creamy taste, and as improving the total composition
